Numbered stars: 1 amine (or outer) side, 2 acyl side, 3 side chain; on linkers, the order of the positions; unused ones are H or OH. Square brackets hold non-standard residues; d marks the D form. Side chains are listed from the residue outwards. Peptide text beside a SMILES is read from it. * marks the point of attachment. C18 diacid = O=C(O)CCCCCCCCCCCCCCCCC(=O)*; γGlu = O=C(O)[C@H](CCC(=O)[*:2])N[*:1]; εLys = N[C@@H](CCCCN[*:1])C(=O)[*:2]; AEEA = NCCOCCOCC(=O)O; Aib = CC(C)(N)C(=O)O
Columns and labels:
human GLP-1 receptor [1] = molecular target: T1, human GLP-1 receptor (Homo sapiens, UniProt P43220); assay: GLP-1 receptor binding: competitive binding assay (125I-GLP-1, SPA) on isolated membranes at low and high HSA; details: displacement of 125I-GLP-1; for IC50: high serum albumin (2.0% HSA final assay concentration)
T1 construct: expressed in transfected cells; host or cells: BHK cells (parent line BHKTS13), clone FCW467-12A; membrane preparation
Procedure: The purpose of this example is to test the receptor binding of the GLP-1 derivatives in vitro. The receptor binding is a measure of affinity of a derivative for the human GLP-1 receptor.
In this type of assay a labelled ligand (in this case ^125I-GLP-1) is bound to the receptor. Each derivative is added in a series of concentrations to isolated membranes containing the human GLP-1 receptor and displacement of the labelled ligand is monitored. The receptor binding is reported as the concentration at which half of the labelled ligand is displaced from the receptor, the IC50 value.
The following chemicals were used in the assay: Human serum albumin (HSA) (Sigma A1653), DMEM w/o phenol red (Gibco 11880-028), Pen/strep (Invitrogen 15140-122), G418 (Invitrogen 10131-027), 1 M Hepes (Gibco 15630), EDTA (Invitrogen 15575-038), PBS (Invitrogen 14190-094), fetal calf serum (Invitrogen 16140-071), EGTA, MgCl2 (Merck 1.05832.1000), Tween 20 (Amresco 0850C335), SPA particles (wheat germ agglutinin (WGA) SPA beads, Perkin Elmer RPNQ0001), [^125I]-GLP-1]-(7-36)NH2 (produced in-house), OptiPlate™-96 (Packard 6005290).
Buffer 1 consisted of 20 mM Na-HEPES plus 10 mM EDTA and pH was adjusted to 7.4. Buffer 2 consisted of 20 mM Na-HEPES plus 0.1 mM EDTA and pH was adjusted to 7.4. Assay buffer consisted of 50 mM HEPES supplemented with 5 mM EGTA, 5 mM MgCl2, 0.005% Tween 20 and pH was adjusted to 7.4. An 8% albumin stock consisted of HSA dissolved at 8% (w/v) in assay buffer. An 0.02% albumin stock consisted of HSA dissolved at 0.02% (w/v) in assay buffer.
The cells express the human GLP-1 receptor.
The cells were grown at 5% CO2 in DMEM, 10% fetal calf serum, 1% Pen/Strep (Penicillin/Streptomycin) and 1.0 mg/ml of the selection marker G418.
To make a membrane preparation the cells were grown to approximately 80% confluence. The cells were washed twice in phosphate-buffered saline and harvested. The cells were pelleted using a brief centrifugation and the cell pellet was kept on ice. The cell pellet was homogenised with ULTRA-THURRAX™ dispersing instrument for 20-30 seconds in a suitable amount of buffer 1 (e.g., 10 ml). The homogenate was centrifuged for 15 minutes. The pellet was re-suspended (homogenised) in 10 ml buffer 2 and centrifuged. This step was repeated once more. The resulting pellet was re-suspended in buffer 2 and the protein concentration was determined. The membranes were aliquoted and stored at minus 80° C.
For the receptor binding assay in the presence of low HSA (0.005%) 50 μl of the assay buffer was added to each well of an assay plate. Assay continued with step 3.
For the receptor binding assay in the presence of high HSA (2%) 50 μl of the 8% albumin stock was added to each well of an assay plate. Assay continued with step 3.
Cell membrane aliquots were thawed and diluted to their working concentration. Fifty μl were added to each well in the assay plate.
WGA SPA beads were suspended in assay buffer at 20 mg/ml. The suspension was diluted to 10 mg/ml in assay buffer just prior to addition to the assay plate. Fifty μl were added to each well in the assay plate.
The incubation was started by adding 25 μl of 480 pM solution of [^125I]-GLP-1]-(7-36)NH2 to each well of the assay plate. A 25 μl aliquot was reserved for measuring total counts/well.
The assay plate was incubated for 2 h at 30° C.
The assay plate was centrifuged for 10 min.
The assay plate was read in a Packard TopCount NXT instrument.
The data from the TopCount instrument were transferred to GraphPad Prism software. The software averaged the values for the replicates and performed a non-linear regression. IC50 values were calculated by the software and reported in nM.

human GLP-1 receptor [2] = molecular target: T1, human GLP-1 receptor; assay: In vitro potency: CRE luciferase reporter gene assay in BHK cells expressing the human GLP-1 receptor; format: cell-based; details: whole cell reporter gene assay, BHK clone FCW467-12A/KZ10-1; averages of at least two replicates
Procedure: The purpose of this example is to test the activity, or potency, of the GLP-1 derivatives in vitro. The in vitro potency is the measure of human GLP-1 receptor activation in a whole cell assay.
In vitro potency was determined by measuring the response of the human GLP-1 receptor in a reporter gene assay. The assay was performed in a stably transfected BHK cell line that expresses the human GLP-1 receptor and contains the DNA for the cAMP response element (CRE) coupled to a promoter and the gene for firefly luciferase (CRE luciferase). When the human GLP-1 receptor is activated it results in the production of cAMP, which in turn results in the luciferase protein being expressed. When assay incubation is completed the luciferase substrate (luciferin) is added and the enzyme converts luciferin to oxyluciferin to produce bioluminescence. The luminescence is measured as the readout for the assay.
The cells were cultured at 5% CO2 in Cell Culture Medium. They were aliquoted and stored in liquid nitrogen. Before each assay an aliquot is taken up and washed twice in PBS before being suspended at the desired concentration in the assay specific buffer. For 96-well plates the suspension was made to give a final concentration of 5×10^3 cells/well.
The following chemicals were used in the assay: Pluronic F-68 (10%) (Gibco 2404), human serum albumin (HSA) (Sigma A9511), ovalbumin (Sigma A5503), DMEM w/o phenol red (Gibco 11880-028), 1 M Hepes (Gibco 15630), Glutamax 100× (Gibco 35050) and steadylite plus (PerkinElmer 6016757).
Cell Culture Medium consisted of DMEM medium with 10% FBS (Fetal Bovine Serum; Invitrogen 16140-071), 1 mg/ml G418 (Invitrogen 15140-122), 240 nM MTX (methotrexate; Sigma M9929) and 1% pen/strep (penicillin/streptomycin; Invitrogen 15140-122).
Assay Medium consisted of DMEM w/o phenol red, 10 mM Hepes and 1× Glutamax. The Assay Buffer consisted of 2% ovalbumin and 0.2% Pluronic F-68 in Assay Medium.
1) Cell stocks were thawed in a 37° C. water bath.
2) Cells were washed three times in PBS.
3) The cells were counted and adjusted to 5×10^3 cells/50 μl (1×10^5 cells/ml) in Assay Medium. A 50 μl aliquot of cells was transferred to each well in the assay plate.
4) Stocks of the test compounds and reference compounds were diluted to a concentration of 0.2 pM in Assay Buffer. […] Compounds were tested at the following final concentrations: 1×10^−7 M, 1×10^−8 M; 1×10^−9 M, 1×10^−10 M, 1×10^−11 M, 1×10^−12 M, 1×10^−13 M, and 1×10^−14 M. 6) The assay plate was incubated for 3 h in a 5% CO2 incubator at 37° C. 7) The assay plate was removed from the incubator and allowed to stand at room temperature for 15 min. 8) A 100 μl aliquot of steadylite plus reagent was added to each well of the assay plate (reagent was light sensitive). 9) Each assay plate was covered with aluminum foil to protect it from light and shaken for 30 min at room temperature. 10) Each assay plate was read in a Packard TopCount NXT instrument. Calculations and Results
The data from the TopCount instrument were transferred to GraphPad Prism software. The software performs a non-linear regression (log(agonist) vs response).
A minimum of two replicates was measured for each sample. The reported values are averages of the replicates.

in vivo = details: male, Göttingen, minipig, iv
Procedure: The purpose of this study is to determine the protraction in vivo of the GLP-1 derivatives after i.v. administration to minipigs, i.e. the prolongation of their time in the body and thereby their time of action. This is done in a pharmacokinetic (PK) study, where the terminal half-life of the derivative in question is determined. By terminal half-life is meant the time it takes to halve a certain plasma concentration in the terminal elimination phase.
Male Göttingen minipigs were obtained from Ellegaard Göttingen Minipigs (Dalmose, Denmark) approximately 7-14 months of age and weighing approximately 16-35 kg were used in the studies. The minipigs were housed either individually (pigs with permanent catheters) or in a group and fed restrictedly once or twice daily with SDS minipig diet (Special Diets Services, Essex, UK).
After at least 2 weeks of acclimatisation two permanent central venous catheters were implanted in vena cava caudalis or cranialis in each animal. The animals were allowed 1 week recovery after the surgery, and were then used for repeated pharmacokinetic studies with a suitable wash-out period between successive GLP-1 derivative dosings.
Blood samples (for example 0.8 ml) were collected in EDTA buffer (8 mM) and then centrifuged at 4° C. and 1942G for 10 minutes.
Plasma was pipetted into Micronic tubes on dry ice, and kept at −20° C. until analysed for plasma concentration of the respective GLP-1 compound using LOCI. Individual plasma concentration-time profiles were analyzed by a non-compartmental pharmacokinetic method in Phoenix v. 6.2 (Pharsight Inc., Mountain View, Calif., USA), or other relevant software for PK analysis, and the resulting terminal half-lives (harmonic mean) determined.

T1 sequence (P43220 24-463): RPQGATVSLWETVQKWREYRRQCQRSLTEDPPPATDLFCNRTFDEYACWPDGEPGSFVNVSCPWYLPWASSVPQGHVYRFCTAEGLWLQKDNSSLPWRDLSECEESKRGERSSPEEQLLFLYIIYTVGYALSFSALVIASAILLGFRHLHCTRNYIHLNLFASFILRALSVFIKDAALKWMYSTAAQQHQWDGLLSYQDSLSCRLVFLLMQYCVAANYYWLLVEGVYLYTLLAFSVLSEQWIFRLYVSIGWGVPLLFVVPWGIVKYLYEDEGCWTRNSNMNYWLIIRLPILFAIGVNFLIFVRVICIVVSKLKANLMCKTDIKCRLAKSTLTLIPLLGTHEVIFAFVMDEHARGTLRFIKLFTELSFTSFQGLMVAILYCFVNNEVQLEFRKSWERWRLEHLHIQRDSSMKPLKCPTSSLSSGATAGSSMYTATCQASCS

| IC50 (human GLP-1 receptor [1]) | EC50 (human GLP-1 receptor [2]) | half-life (in vivo) | Low HSA IC50 (human GLP-1 receptor [1]; Low HSA IC50, low serum albumin (max. 0.001% final assay concentration)) | Structure (SMILES) |
| --- | --- | --- | --- | --- |
| > 1000 nM | – | – | – | CC[C@H](C)[C@H](NC(=O)[C@H](Cc1ccccc1)NC(=O)[C@H](CCC(=O)O)NC(=O)[C@H](CCCCNC(=O)[C@@H](N)CCCCNC(=O)COCCOCCNC(=O)COCCOCCNC(=O)CC[C@H](NC(=O)CCCCCCCCCCCCCCCCC(=O)O)C(=O)O)NC(=O)[C@H](C)NC(=O)[C@H](C)NC(=O)[C@H](CCC(N)=O)NC(=O)[C@H](CCC(=O)O)NC(=O)[C@H](CCC(=O)O)NC(=O)[C@H](CC(C)C)NC(=O)[C@H](Cc1ccc(O)cc1)NC(=O)[C@H](CO)NC(=O)[C@H](CO)NC(=O)[C@@H](NC(=O)[C@H](CC(=O)O)NC(=O)[C@H](CO)NC(=O)[C@@H](NC(=O)[C@H](Cc1ccccc1)NC(=O)[C@@H](NC(=O)CNC(=O)[C@H](CCC(=O)O)NC(=O)C(C)(C)NC(=O)[C@@H](N)Cc1c[nH]cn1)[C@@H](C)O)[C@@H](C)O)C(C)C)C(=O)N[C@@H](CCCCNC(=O)[C@@H](N)CCCCNC(=O)COCCOCCNC(=O)COCCOCCNC(=O)CC[C@H](NC(=O)CCCCCCCCCCCCCCCCC(=O)O)C(=O)O)C(=O)N[C@@H](Cc1c[nH]c2ccccc12)C(=O)N[C@@H](CC(C)C)C(=O)N[C@H](C(=O)N[C@@H](CCCNC(=N)N)C(=O)NCC(=O)N[C@@H](CCCNC(=N)N)C(=O)N[C@@H](CCCCNC(=O)[C@@H](N)CCCCNC(=O)COCCOCCNC(=O)COCCOCCNC(=O)CC[C@H](NC(=O)CCCCCCCCCCCCCCCCC(=O)O)C(=O)O)C(=O)O)C(C)C [Example 11] (H-H[Aib]EGTFTSDVSSYLEEQAAK([εLys-AEEA-AEEA-γGlu-C18 diacid])EFIK([εLys-AEEA-AEEA-γGlu-C18 diacid])WLVRGRK([εLys-AEEA-AEEA-γGlu-C18 diacid])-OH; N-terminus and C-terminus assumed) |
| – | 0.026 nM | 158 h | – | CC[C@H](C)[C@H](NC(=O)[C@H](Cc1ccccc1)NC(=O)[C@H](CCCCNC(=O)COCCOCCNC(=O)COCCOCCNC(=O)CC[C@H](NC(=O)CCCCCCCCCCCCCCCCC(=O)O)C(=O)O)NC(=O)[C@H](CCCNC(=N)N)NC(=O)[C@H](C)NC(=O)[C@H](C)NC(=O)[C@H](CCC(N)=O)NC(=O)[C@H](CCC(=O)O)NC(=O)[C@H](CCC(=O)O)NC(=O)[C@H](CC(C)C)NC(=O)[C@H](Cc1ccc(O)cc1)NC(=O)[C@H](CO)NC(=O)[C@H](CO)NC(=O)[C@@H](NC(=O)[C@H](CC(=O)O)NC(=O)[C@H](CO)NC(=O)[C@@H](NC(=O)[C@H](Cc1ccccc1)NC(=O)[C@@H](NC(=O)CNC(=O)[C@H](CCC(=O)O)NC(=O)C(C)(C)NC(=O)[C@@H](N)Cc1c[nH]cn1)[C@@H](C)O)[C@@H](C)O)C(C)C)C(=O)N[C@@H](CCCCNC(=O)COCCOCCNC(=O)COCCOCCNC(=O)CC[C@H](NC(=O)CCCCCCCCCCCCCCCCC(=O)O)C(=O)O)C(=O)N[C@@H](Cc1c[nH]c2ccccc12)C(=O)N[C@@H](CC(C)C)C(=O)N[C@H](C(=O)N[C@@H](CCCNC(=N)N)C(=O)NCC(=O)N[C@@H](CCCNC(=N)N)C(=O)N[C@@H](CCCCNC(=O)COCCOCCNC(=O)COCCOCCNC(=O)CC[C@H](NC(=O)CCCCCCCCCCCCCCCCC(=O)O)C(=O)O)C(=O)O)C(C)C [Example 10] (H-H[Aib]EGTFTSDVSSYLEEQAARK([AEEA-AEEA-γGlu-C18 diacid])FIK([AEEA-AEEA-γGlu-C18 diacid])WLVRGRK([AEEA-AEEA-γGlu-C18 diacid])-OH; N-terminus and C-terminus assumed) |
| – | 0.018 nM | 143 h | – | CC[C@H](C)[C@H](NC(=O)[C@H](Cc1ccccc1)NC(=O)[C@H](CCC(=O)O)NC(=O)[C@H](CCCNC(=N)N)NC(=O)[C@H](C)NC(=O)[C@H](C)NC(=O)[C@H](CCC(N)=O)NC(=O)[C@H](CCCCNC(=O)COCCOCCNC(=O)COCCOCCNC(=O)COCCOCCNC(=O)COCCOCCNC(=O)COCCOCCNC(=O)[C@@H](N)CCCCNC(=O)[C@@H](N)CCCCNC(=O)[C@@H](N)CCCCNC(=O)CCCCCCCCCCCCCCCCC(=O)O)NC(=O)[C@H](CCC(=O)O)NC(=O)[C@H](CC(C)C)NC(=O)[C@H](Cc1ccc(O)cc1)NC(=O)[C@H](CCCCNC(=O)COCCOCCNC(=O)COCCOCCNC(=O)COCCOCCNC(=O)COCCOCCNC(=O)COCCOCCNC(=O)[C@@H](N)CCCCNC(=O)[C@@H](N)CCCCNC(=O)[C@@H](N)CCCCNC(=O)CCCCCCCCCCCCCCCCC(=O)O)NC(=O)[C@H](CO)NC(=O)[C@@H](NC(=O)[C@H](CC(=O)O)NC(=O)[C@H](CO)NC(=O)[C@@H](NC(=O)[C@H](Cc1ccccc1)NC(=O)[C@@H](NC(=O)CNC(=O)[C@H](CCC(=O)O)NC(=O)C(C)(C)NC(=O)[C@@H](N)Cc1c[nH]cn1)[C@@H](C)O)[C@@H](C)O)C(C)C)C(=O)N[C@@H](CCCCNC(=O)COCCOCCNC(=O)COCCOCCNC(=O)COCCOCCNC(=O)COCCOCCNC(=O)COCCOCCNC(=O)[C@@H](N)CCCCNC(=O)[C@@H](N)CCCCNC(=O)[C@@H](N)CCCCNC(=O)CCCCCCCCCCCCCCCCC(=O)O)C(=O)N[C@@H](Cc1c[nH]c2ccccc12)C(=O)N[C@@H](CC(C)C)C(=O)N[C@H](C(=O)N[C@@H](CCCNC(=N)N)C(=O)NCC(=O)N[C@@H](CCCNC(=N)N)C(=O)NCC(=O)O)C(C)C [Example 17] |
| – | 0.026 nM | – | – | CC[C@H](C)[C@H](NC(=O)[C@H](Cc1ccccc1)NC(=O)[C@H](CCC(=O)O)NC(=O)[C@H](CCCNC(=N)N)NC(=O)[C@H](C)NC(=O)[C@H](C)NC(=O)[C@H](CCC(N)=O)NC(=O)[C@H](CCCCNC(=O)COCCOCCNC(=O)COCCOCCNC(=O)[C@@H](N)CCCCNC(=O)CCCCCCCCCCCCCCCS(=O)(=O)O)NC(=O)[C@H](CCC(=O)O)NC(=O)[C@H](CC(C)C)NC(=O)[C@H](Cc1ccc(O)cc1)NC(=O)[C@H](CCCCNC(=O)COCCOCCNC(=O)COCCOCCNC(=O)[C@@H](N)CCCCNC(=O)CCCCCCCCCCCCCCCS(=O)(=O)O)NC(=O)[C@H](CO)NC(=O)[C@@H](NC(=O)[C@H](CC(=O)O)NC(=O)[C@H](CO)NC(=O)[C@@H](NC(=O)[C@H](Cc1ccccc1)NC(=O)[C@@H](NC(=O)CNC(=O)[C@H](CCC(=O)O)NC(=O)C(C)(C)NC(=O)[C@@H](N)Cc1c[nH]cn1)[C@@H](C)O)[C@@H](C)O)C(C)C)C(=O)N[C@@H](CCCCNC(=O)COCCOCCNC(=O)COCCOCCNC(=O)[C@@H](N)CCCCNC(=O)CCCCCCCCCCCCCCCS(=O)(=O)O)C(=O)N[C@@H](Cc1c[nH]c2ccccc12)C(=O)N[C@@H](CC(C)C)C(=O)N[C@H](C(=O)N[C@@H](CCCNC(=N)N)C(=O)NCC(=O)N[C@@H](CCCNC(=N)N)C(=O)NCC(=O)O)C(C)C [Example 13] |
| > 1000 nM | – | 103 h | 0.4 nM | CC[C@H](C)[C@H](NC(=O)[C@H](Cc1ccccc1)NC(=O)[C@H](CCCCNC(=O)[C@@H](N)CCCCNC(=O)COCCOCCNC(=O)COCCOCCNC(=O)CC[C@H](NC(=O)CCCCCCCCCCCCCCCCC(=O)O)C(=O)O)NC(=O)[C@H](CCCNC(=N)N)NC(=O)[C@H](C)NC(=O)[C@H](C)NC(=O)[C@H](CCC(N)=O)NC(=O)[C@H](CCC(=O)O)NC(=O)[C@H](CCC(=O)O)NC(=O)[C@H](CC(C)C)NC(=O)[C@H](Cc1ccc(O)cc1)NC(=O)[C@H](CCCCNC(=O)[C@@H](N)CCCCNC(=O)COCCOCCNC(=O)COCCOCCNC(=O)CC[C@H](NC(=O)CCCCCCCCCCCCCCCCC(=O)O)C(=O)O)NC(=O)[C@H](CO)NC(=O)[C@@H](NC(=O)[C@H](CC(=O)O)NC(=O)[C@H](CO)NC(=O)[C@@H](NC(=O)[C@H](Cc1ccccc1)NC(=O)[C@@H](NC(=O)CNC(=O)[C@H](CCC(=O)O)NC(=O)C(C)(C)NC(=O)[C@@H](N)Cc1c[nH]cn1)[C@@H](C)O)[C@@H](C)O)C(C)C)C(=O)N[C@@H](C)C(=O)N[C@@H](Cc1c[nH]c2ccccc12)C(=O)N[C@@H](CC(C)C)C(=O)N[C@H](C(=O)N[C@@H](CCCNC(=N)N)C(=O)NCC(=O)N[C@@H](CCCNC(=N)N)C(=O)N[C@@H](CCCCNC(=O)[C@@H](N)CCCCNC(=O)COCCOCCNC(=O)COCCOCCNC(=O)CC[C@H](NC(=O)CCCCCCCCCCCCCCCCC(=O)O)C(=O)O)C(=O)O)C(C)C [Example 6] (H-H[Aib]EGTFTSDVSK([εLys-AEEA-AEEA-γGlu-C18 diacid])YLEEQAARK([εLys-AEEA-AEEA-γGlu-C18 diacid])FIAWLVRGRK([εLys-AEEA-AEEA-γGlu-C18 diacid])-OH; N-terminus and C-terminus assumed) |
| > 1000 nM | – | – | – | CC[C@H](C)[C@H](NC(=O)[C@H](Cc1ccccc1)NC(=O)[C@H](CCCCNC(=O)COCCOCCNC(=O)COCCOCCNC(=O)CC[C@H](NC(=O)CCCCCCCCCCCCCCCCC(=O)O)C(=O)O)NC(=O)[C@H](CCCNC(=N)N)NC(=O)[C@H](C)NC(=O)[C@H](C)NC(=O)[C@H](CCC(N)=O)NC(=O)[C@H](CCC(=O)O)NC(=O)[C@H](CCC(=O)O)NC(=O)[C@H](CC(C)C)NC(=O)[C@H](Cc1ccc(O)cc1)NC(=O)[C@H](CCCCNC(=O)COCCOCCNC(=O)COCCOCCNC(=O)CC[C@H](NC(=O)CCCCCCCCCCCCCCCCC(=O)O)C(=O)O)NC(=O)[C@H](CO)NC(=O)[C@@H](NC(=O)[C@H](CC(=O)O)NC(=O)[C@H](CO)NC(=O)[C@@H](NC(=O)[C@H](Cc1ccccc1)NC(=O)[C@@H](NC(=O)CNC(=O)[C@H](CCC(=O)O)NC(=O)C(C)(C)NC(=O)[C@@H](N)Cc1c[nH]cn1)[C@@H](C)O)[C@@H](C)O)C(C)C)C(=O)N[C@@H](C)C(=O)N[C@@H](Cc1c[nH]c2ccccc12)C(=O)N[C@@H](CC(C)C)C(=O)N[C@H](C(=O)N[C@@H](CCCNC(=N)N)C(=O)NCC(=O)N[C@@H](CCCNC(=N)N)C(=O)N[C@@H](CCCCNC(=O)COCCOCCNC(=O)COCCOCCNC(=O)CC[C@H](NC(=O)CCCCCCCCCCCCCCCCC(=O)O)C(=O)O)C(=O)O)C(C)C [Example 5] (H-H[Aib]EGTFTSDVSK([AEEA-AEEA-γGlu-C18 diacid])YLEEQAARK([AEEA-AEEA-γGlu-C18 diacid])FIAWLVRGRK([AEEA-AEEA-γGlu-C18 diacid])-OH; N-terminus and C-terminus assumed) |
